# Values quoted from earlier work in patent US10561704B2, “Compositions and methods for treating neuropsychiatric disorders using an endothelin-B receptor agonist” (MIDWESTERN UNIVERSITY, priority 2013, dated 2020).
# Where a SMILES comes first, the peptide text is derived from it.
# Tested on: Aβ treated rats
# Settings: Briyal et al., 2011; cited from earlier work
row,Structure (SMILES),Aβ induced oxidative stress and cognitive deficits
1,Cc1noc(NS(=O)(=O)c2cccc3c(N(C)C)cccc23)c1C [BMS182874],prevent
2,"CC(C)C[C@@H]1NC(=O)[C@@H](C(C)C)NC(=O)[C@@H]2CCCN2C(=O)[C@@H](CC(=O)O)NC(=O)[C@@H](Cc2c[nH]c3ccccc23)NC1=O [BQ123] (HELM PEPTIDE1{L.[dW].[dD].P.[dV]}$PEPTIDE1,PEPTIDE1,1:R1-5:R2$$$V2.0)",prevent
